{"source": "patent US20090324624A1", "about": "“Chitin micro-particles as an adjuvant” (priority 2006, published 2009)", "type_in_all_cases": "cell-based, mouse", "key": {"IL-10 mRNA": {"test_system": "IL-10 mRNA", "assay": "IL-10 mRNA expression in RAW264.7 MØ (RT-PCR)"}, "F4/80": {"test_system": "F4/80", "assay": "Surface expression of MØ antigens, cytometry: F4/80", "details": "5 mM MBCD, 1 hr at 37°"}, "Mac-1": {"test_system": "Mac-1", "sequence (P05555 17-1153)": "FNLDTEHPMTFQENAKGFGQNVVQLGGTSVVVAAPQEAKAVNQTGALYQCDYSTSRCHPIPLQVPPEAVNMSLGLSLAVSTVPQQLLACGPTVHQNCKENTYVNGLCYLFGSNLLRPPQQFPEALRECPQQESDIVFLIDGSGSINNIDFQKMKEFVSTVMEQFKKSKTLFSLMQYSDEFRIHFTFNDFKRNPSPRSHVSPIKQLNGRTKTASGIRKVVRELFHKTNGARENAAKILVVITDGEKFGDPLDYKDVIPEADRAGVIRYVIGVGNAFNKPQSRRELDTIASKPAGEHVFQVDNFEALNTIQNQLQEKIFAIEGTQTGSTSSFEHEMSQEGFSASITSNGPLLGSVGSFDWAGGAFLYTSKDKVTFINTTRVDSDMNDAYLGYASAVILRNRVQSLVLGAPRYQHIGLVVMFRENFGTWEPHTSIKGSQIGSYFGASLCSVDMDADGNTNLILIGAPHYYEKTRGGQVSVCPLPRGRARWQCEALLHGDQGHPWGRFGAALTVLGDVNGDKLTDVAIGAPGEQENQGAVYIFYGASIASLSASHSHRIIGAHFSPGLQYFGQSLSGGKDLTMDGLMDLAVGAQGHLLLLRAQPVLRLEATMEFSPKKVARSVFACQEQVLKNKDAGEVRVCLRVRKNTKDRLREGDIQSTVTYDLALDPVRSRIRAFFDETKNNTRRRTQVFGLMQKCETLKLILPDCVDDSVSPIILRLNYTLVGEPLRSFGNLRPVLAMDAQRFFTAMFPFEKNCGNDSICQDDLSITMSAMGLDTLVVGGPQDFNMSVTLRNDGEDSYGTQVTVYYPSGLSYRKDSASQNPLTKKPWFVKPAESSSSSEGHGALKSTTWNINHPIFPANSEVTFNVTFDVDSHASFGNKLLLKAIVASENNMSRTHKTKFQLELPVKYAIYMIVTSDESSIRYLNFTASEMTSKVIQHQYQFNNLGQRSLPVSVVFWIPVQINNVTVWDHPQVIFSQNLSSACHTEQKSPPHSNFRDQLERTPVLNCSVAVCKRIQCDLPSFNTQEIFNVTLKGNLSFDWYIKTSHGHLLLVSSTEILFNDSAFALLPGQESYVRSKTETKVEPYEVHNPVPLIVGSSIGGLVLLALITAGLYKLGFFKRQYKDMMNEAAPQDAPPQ"}, "[1]": {"test_system": "Fcγ receptor II/III (FcγR)", "assay": "Surface expression of MØ antigens, cytometry: FcγR", "details": "5 mM MBCD, 1 hr at 37°", "description": "For evaluation of phagocytosis, MØ were incubated with 100 μg/ml FITC-chitin particles at 37° C. for 20 or 40 min. Fluorescence of unphagocytosed FITC-chitin was quenched with 50 mM acetate-buffered saline (pH 4.5) containing 2 mg/ml trypan blue, and the fluorescence intensity of MØ with intracellular FITC-chitin particles was measured cytometrically. The presence of intracellular FITC-chitin particles was further confirmed by fluorescence microscopy (Provis AX70 Microscope with MagnaFire, Olympus, Center Valley, Pa.). Expression of F4/80, Mac-1, FcγR, SR-A, TLR4, or MR on MØ was determined cytometrically.\nThe effect of cholesterol depletion on expression of the selected MØ surface antigens F4/80, Mac-1, FcγR, SR-A, TLR4, and MR was determined. […] The expression of TLR4 and MR were not altered by MBCD. The values for mean fluorescence intensity were consistent with the effects of MBCD on the expression of MØ antigens (Table 3). Therefore, MBCD at 5 mM or less was used for further experiments. All studies of chitin stimulation in the presence of MBCD were terminated within 6 h."}, "[2]": {"test_system": "scavenger receptor A (SR-A)", "assay": "Surface expression of MØ antigens, cytometry: SR-A", "details": "5 mM MBCD, 1 hr at 37°"}, "[3]": {"test_system": "Toll-like receptor 4 (TLR4)", "assay": "Surface expression of MØ antigens, cytometry: TLR4", "details": "5 mM MBCD, 1 hr at 37°; 2nd antibody control 7.0"}, "mannose receptor (MR)": {"test_system": "mannose receptor (MR)", "assay": "Surface expression of MØ antigens, cytometry: MR", "details": "5 mM MBCD, 1 hr at 37°; 2nd antibody control 7.0"}, "RAW 264.7 MØ [4]": {"test_system": "RAW 264.7 MØ", "assay": "Cell-surface binding of FITC-chitin particles", "details": "MBCD-treated vs saline-treated MØ", "description": "For chitin binding and phagocytosis assays, 1-10 μm chitin particles were labeled with fluorescein isothiocyanate (FITC). Particles (10 mg) and FITC (0.1 mg) were mixed and incubated in 0.1 M NaHCO3 at 22° C. for 2 h. Glycine (final 1 M) was added to bind free FITC, after which labeled particles were washed and suspended in saline at 10 mg/ml. To assess cell-surface binding of chitin, MØ were incubated with 100 μg/ml FITC-chitin particles on ice for 30 min. Free particles were removed by washing three times, and cellular fluorescence was measured cytometrically (BD FACSCalibur system with CELL Quest™ acquisition plus analysis program; Becton-Dickinson Immunocytometry Systems, San Jose, Calif.). To confirm that MØ binding to chitin particles was not altered by FITC, an excess of unlabeled particles (1,000 μg/ml) was used to compete with FITC-chitin.\nIt was also determined whether cholesterol depletion modifies MØ binding and internalization of FITC-chitin microparticles. […] Internalization of FITC-chitin particles at 37° C. was analyzed following quenching of unphagocytosed FITC-chitin. The magnitude of phagocytosis is similar for MBCD- and saline-treated MØ at 20 min: 12 and 12%, respectively."}, "RAW 264.7 MØ [5]": {"test_system": "RAW 264.7 MØ", "assay": "TNF-α production by MBCD- or saline-treated MØ (ELISA)", "details": "for increase in TNF-α production in response to chitin particles: 1 mM MBCD"}, "COX-2": {"test_system": "COX-2", "assay": "COX-2 expression and PGE2 release by MBCD- or saline-treated MØ"}, "[6]": {"test_system": "chitin phagosome-associated p38 and ERK1/2", "assay": "Phagosomal (chitin particle-associated) MAPK phosphorylation", "details": "10, 20 and 40 min", "description": "FIG. 14 is a series of photographs of gels showing Phagosomal localization of MAPK proteins. MBCD- and saline-treated MØ were stimulated with 100 μg/ml 1-10 μm chitin particles at 37° C. for 10, 20 or 40 min. Chitin particle-associated proteins were isolated and extracted as described in Example 3. Particle-associated proteins derived from 2×10^6 MØ as well as whole cell proteins were separated on SDS-11% polyacrylamide gel and electroblotted to PVDF membrane. The data shown are representative of two independent experiments.\nMBCD- or saline-treated MØ (2×10^6/ml) were stimulated with 100 μg/ml 1-10 μm chitin particles at 37° C. for 10, 20, or 40 min, washed with saline, suspended in homogenization buffer (50 mM Tris-HCl, pH 7.5, 0.32 M sucrose, 10 mM NaF, 1 mM Na3VO4, 5 mM EDTA, 1:500 protease inhibitor cocktail [Sigma]), and homogenized by sonication (20 s). […] Total and phosphorylated p38 and ERK1/2 as well as lysosome-associated membrane protein-1 (LAMP-1) were detected by western blotting with specific antibodies as described above. […]\nThe extent of phosphorylation of MAPK associated with intracellular chitin particles in MBCD-treated and saline-treated MØ was determined. […] MAPKs p38 and ERK1/2 and the respective phosphorylated forms were detected in the particle-associated fractions at 10, 20 and 40 min (FIG. 14). […] Phosphorylated JNK was not detected in the particle-associated fraction."}}, "data": [{"substance": "methyl-β-cyclodextrin [MBCD]", "values": [{"measurement": "CpG-ODN-induced IL-10 mRNA after MBCD treatment", "setting": "IL-10 mRNA", "value": "not increased"}, {"measurement": "chitin particle-induced IL-10 mRNA expression after MBCD treatment", "setting": "IL-10 mRNA; 6 h", "value": "did not result in IL-10 mRNA expression"}, {"measurement": "% positive cells in M1, F4/80", "setting": "F4/80", "value": 69, "unit": "%"}, {"measurement": "MFI, F4/80", "setting": "F4/80; 2nd antibody control 7.0", "value": 17}, {"measurement": "% positive cells in M1, Mac-1", "setting": "Mac-1", "value": 81, "unit": "%"}, {"measurement": "MFI, Mac-1", "setting": "Mac-1", "value": 36}, {"measurement": "% positive cells in M1, FcγR", "setting": "[1]", "value": 65, "unit": "%"}, {"measurement": "MFI, FcγR", "setting": "[1]; 2nd antibody control 7.0", "value": 14}, {"measurement": "% positive cells in M1, SR-A", "setting": "[2]", "value": 81, "unit": "%"}, {"measurement": "MFI, SR-A", "setting": "[2]; 2nd antibody control 7.0", "value": 32}, {"measurement": "MFI, TLR4", "setting": "[3]", "value": 23}, {"measurement": "MFI, MR", "setting": "mannose receptor (MR)", "value": 73}, {"measurement": "effect of MBCD treatment on MØ binding to FITC-chitin particles", "setting": "RAW 264.7 MØ [4]", "value": "not significantly altered"}, {"measurement": "increase in TNF-α production in response to chitin particles", "setting": "RAW 264.7 MØ [5]; 20 μg/ml chitin particles", "value": 3, "unit": "fold"}, {"measurement": "increase in TNF-α production in response to chitin particles", "setting": "RAW 264.7 MØ [5]; 100 μg/ml chitin particles", "value": 1.8, "unit": "fold"}, {"measurement": "TNF-α production, MBCD alone", "setting": "RAW 264.7 MØ [5]; 5 mM MBCD", "value": "enhanced slightly but significantly"}, {"measurement": "CpG-ODN-induced COX-2 expression or PGE2 release", "setting": "COX-2; 1 mM MBCD", "value": "did not enhance"}, {"measurement": "COX-2 expression, MBCD alone", "setting": "COX-2; 5 mM MBCD", "value": "induced"}, {"measurement": "PGE2 release vs MØ treated with saline", "setting": "COX-2; 5 mM MBCD", "value": "not different"}, {"measurement": "relative amounts of chitin-associated phosphorylated MAPK, MBCD- vs saline-treated cells (FIG. 14)", "setting": "[6]", "value": "greater"}]}]}
